Like-named read-outs stand apart in the source and are kept apart here.
Legend:
Type in all cases: biochemical
Tyro3 = target: T1, Tyro3 (Homo sapiens, UniProt Q06418); assay: Tyro3 kinase inhibition IC50
T1 sequence (Q06418 41-890): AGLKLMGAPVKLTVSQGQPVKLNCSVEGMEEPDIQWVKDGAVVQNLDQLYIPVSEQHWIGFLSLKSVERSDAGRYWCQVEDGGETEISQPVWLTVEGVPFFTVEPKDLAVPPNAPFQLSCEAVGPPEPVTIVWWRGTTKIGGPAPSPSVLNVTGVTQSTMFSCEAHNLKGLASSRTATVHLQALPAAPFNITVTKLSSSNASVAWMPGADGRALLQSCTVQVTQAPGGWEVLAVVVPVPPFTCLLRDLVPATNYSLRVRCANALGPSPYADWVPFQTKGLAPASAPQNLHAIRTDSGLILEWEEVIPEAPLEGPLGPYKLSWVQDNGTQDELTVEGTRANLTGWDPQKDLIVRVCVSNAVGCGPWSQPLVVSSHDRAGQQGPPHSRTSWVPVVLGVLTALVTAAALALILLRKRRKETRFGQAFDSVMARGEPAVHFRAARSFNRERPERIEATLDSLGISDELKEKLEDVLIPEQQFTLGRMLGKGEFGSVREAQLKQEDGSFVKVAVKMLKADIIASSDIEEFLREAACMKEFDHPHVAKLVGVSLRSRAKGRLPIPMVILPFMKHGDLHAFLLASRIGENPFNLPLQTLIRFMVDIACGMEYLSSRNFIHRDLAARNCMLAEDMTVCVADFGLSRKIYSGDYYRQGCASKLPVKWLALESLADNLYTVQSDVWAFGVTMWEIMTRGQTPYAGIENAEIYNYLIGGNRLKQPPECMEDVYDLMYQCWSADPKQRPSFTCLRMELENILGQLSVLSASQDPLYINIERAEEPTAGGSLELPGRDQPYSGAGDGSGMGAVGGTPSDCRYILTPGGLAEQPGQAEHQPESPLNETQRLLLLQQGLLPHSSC

Mer = target: T2, Mer (Homo sapiens, UniProt Q12866); assay: Mer kinase inhibition IC50; settings: read-out: Mer IC50
T2 sequence (Q12866 21-999): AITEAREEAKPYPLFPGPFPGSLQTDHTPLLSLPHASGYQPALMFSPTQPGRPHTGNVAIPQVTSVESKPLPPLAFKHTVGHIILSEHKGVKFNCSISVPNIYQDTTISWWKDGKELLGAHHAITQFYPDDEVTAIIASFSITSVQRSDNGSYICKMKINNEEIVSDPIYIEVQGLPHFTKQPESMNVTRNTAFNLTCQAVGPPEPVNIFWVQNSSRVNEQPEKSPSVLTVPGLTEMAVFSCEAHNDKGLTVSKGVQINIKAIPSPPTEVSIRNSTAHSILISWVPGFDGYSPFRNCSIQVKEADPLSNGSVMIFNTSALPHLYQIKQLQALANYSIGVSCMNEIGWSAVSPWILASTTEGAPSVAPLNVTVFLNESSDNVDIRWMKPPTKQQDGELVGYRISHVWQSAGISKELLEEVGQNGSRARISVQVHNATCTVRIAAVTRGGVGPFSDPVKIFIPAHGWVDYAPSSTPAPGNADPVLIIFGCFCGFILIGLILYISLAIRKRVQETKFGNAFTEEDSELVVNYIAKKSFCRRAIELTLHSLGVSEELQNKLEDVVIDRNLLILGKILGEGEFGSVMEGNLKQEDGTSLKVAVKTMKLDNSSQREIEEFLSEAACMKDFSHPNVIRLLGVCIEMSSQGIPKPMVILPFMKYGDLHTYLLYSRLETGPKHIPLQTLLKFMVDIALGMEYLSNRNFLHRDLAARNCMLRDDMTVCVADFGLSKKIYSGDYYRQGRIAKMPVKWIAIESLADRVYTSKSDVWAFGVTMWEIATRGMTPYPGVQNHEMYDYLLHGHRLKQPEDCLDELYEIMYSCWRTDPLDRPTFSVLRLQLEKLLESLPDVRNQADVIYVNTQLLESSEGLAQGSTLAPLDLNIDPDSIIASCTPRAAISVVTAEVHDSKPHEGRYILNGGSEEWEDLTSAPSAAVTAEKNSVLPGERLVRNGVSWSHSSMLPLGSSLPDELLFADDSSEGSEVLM

Axl = target: T3, Axl (Homo sapiens, UniProt P30530); assay: Axl kinase inhibition IC50
T3 sequence (P30530 26-894): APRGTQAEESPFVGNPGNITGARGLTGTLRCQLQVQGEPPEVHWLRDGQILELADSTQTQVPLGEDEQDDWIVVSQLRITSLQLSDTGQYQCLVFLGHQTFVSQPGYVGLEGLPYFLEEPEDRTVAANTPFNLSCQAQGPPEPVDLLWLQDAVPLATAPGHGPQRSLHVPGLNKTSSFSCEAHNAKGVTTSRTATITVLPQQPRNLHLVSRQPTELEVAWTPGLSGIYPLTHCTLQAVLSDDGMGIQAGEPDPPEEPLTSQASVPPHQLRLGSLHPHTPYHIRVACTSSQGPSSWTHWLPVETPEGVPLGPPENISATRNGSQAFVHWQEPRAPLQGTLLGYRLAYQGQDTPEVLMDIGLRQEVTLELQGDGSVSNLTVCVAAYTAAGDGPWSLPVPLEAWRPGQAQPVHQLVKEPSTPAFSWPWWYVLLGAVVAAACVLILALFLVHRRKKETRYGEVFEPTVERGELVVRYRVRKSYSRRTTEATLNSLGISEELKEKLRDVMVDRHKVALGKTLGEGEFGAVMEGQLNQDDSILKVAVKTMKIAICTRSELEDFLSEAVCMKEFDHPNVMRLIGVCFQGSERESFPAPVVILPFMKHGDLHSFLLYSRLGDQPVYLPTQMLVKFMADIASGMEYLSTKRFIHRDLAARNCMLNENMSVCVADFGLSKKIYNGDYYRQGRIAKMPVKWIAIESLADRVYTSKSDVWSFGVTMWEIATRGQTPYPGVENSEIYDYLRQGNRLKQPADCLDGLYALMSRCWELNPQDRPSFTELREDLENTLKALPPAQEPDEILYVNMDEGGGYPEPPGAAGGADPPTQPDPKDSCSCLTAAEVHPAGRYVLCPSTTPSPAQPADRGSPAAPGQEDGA

| SMILES | IC50 (Tyro3; Table 2, read-out: Tyro3 IC50) | IC50 (Mer; Table 2) | IC50 (Axl; Table 2) | IC50 (Tyro3; Table 3, read-out: Tyro3 IC50) | IC50 (Mer; Table 3) | IC50 (Axl; Table 3) | further results |
| --- | --- | --- | --- | --- | --- | --- | --- |
| CN1CCC(c2ccc(Nc3ncc(-c4ccccn4)c(N[C@H]4CC[C@H](C)CC4)n3)cc2)CC1 [UNC5133A] | 100 to 1000 nM | 100 to 1000 nM | 1000 to 30000 nM | – | – | – | – |
| CN1CCN(Cc2ccc(-c3cnc(Nc4ccc(C#Cc5cc(NC(=O)C6CCCCC6)ccn5)cc4)nc3N[C@H]3CC[C@H](O)CC3)cc2)CC1 [UNC3873A] | – | – | – | 10 to 100 nM | < 10 nM | 10 to 100 nM | – |
| O[C@H]1CC[C@H](Nc2nc(Nc3ccc(C#Cc4cc(-c5ccncc5)ccn4)cc3)ncc2-c2ccccn2)CC1 [UNC4363A] | – | – | – | – | – | – | IC50 (Tyro3; Table 4, read-out: Tryo3 IC50): 100 to 1000 nM; IC50 (Mer; Table 4): 10 to 100 nM; IC50 (Axl; Table 4): 1000 to 30000 nM |
| CC(C)Nc1nc(Nc2ccc(C3CCN(C)CC3)cc2)ncc1-c1ccccn1 [UNC5135A] | 100 to 1000 nM | 10 to 100 nM | 100 to 1000 nM | – | – | – | – |
| CN(C)C(=O)c1ccnc(C#Cc2ccc(Nc3ncc(-c4ccccn4)c(N[C@H]4CC[C@H](O)CC4)n3)cc2)c1 [UNC3459A] | – | – | – | < 10 nM | 10 to 100 nM | 1000 to 30000 nM | – |
| CN1CCN(Cc2ccc(-c3cnc(Nc4ccc(C#Cc5cc(NC(=O)C6CCC6)ccn5)cc4)nc3N[C@H]3CC[C@H](O)CC3)cc2)CC1 [UNC3871A] | – | – | – | < 10 nM | < 10 nM | 10 to 100 nM | – |
| CN1CCN(Cc2ccc(-c3ccc(Nc4ncc(-c5ccccn5)c(N[C@H]5CC[C@H](O)CC5)n4)cc3)cc2)CC1 [UNC4437A] | – | 100 to 1000 nM | – | – | – | – | – |
| CC(C)Nc1ccnc(C#Cc2ccc(Nc3ncc(-c4ccccn4)c(N[C@H]4CC[C@H](O)CC4)n3)cc2)c1 [UNC4364A] | – | – | – | – | – | – | IC50 (Tyro3; Table 4, read-out: Tryo3 IC50): 10 to 100 nM; IC50 (Mer; Table 4): 10 to 100 nM; IC50 (Axl; Table 4): 100 to 1000 nM |
| CN1CCC(c2ccc(Nc3ncc(-c4ccccn4)c(N[C@H]4CC[C@H](O)CC4)n3)cc2)CC1 [UNC5130A] | 100 to 1000 nM | 10 to 100 nM | 100 to 1000 nM | – | – | – | – |
| CC(C)N1CCC(=Cc2ccc(-c3cnc(Nc4ccc(F)cc4)nc3N[C@H]3CC[C@H](O)CC3)nc2)CC1 [UNC4397A] | – | – | – | – | – | – | IC50 (Tyro3; Table 1, read-out: Tyro3 IC50): < 10 nM; IC50 (Mer; Table 1): < 10 nM; IC50 (Axl; Table 1): < 10 nM |
| O[C@H]1CC[C@H](Nc2nc(Nc3ccc(C4=CCOCC4)cc3)ncc2-c2ccccn2)CC1 [UNC4434A] | 100 to 1000 nM | 10 to 100 nM | 100 to 1000 nM | – | – | – | – |
| CC(C)C(=O)Nc1ccnc(C#Cc2ccc(Nc3ncc(-c4ccc(CN5CCN(C)CC5)cc4)c(N[C@H]4CC[C@H](O)CC4)n3)c(Cl)c2)c1 [UNC4046A] | – | – | – | 10 to 100 nM | 10 to 100 nM | < 10 nM | – |
| CCNC(=O)c1ccnc(C#Cc2ccc(Nc3ncc(-c4ccccn4)c(N[C@H]4CC[C@H](O)CC4)n3)cc2)c1 [UNC3458A] | – | – | – | < 10 nM | < 10 nM | < 10 nM | – |
| O[C@H]1CC[C@H](Nc2nc(Nc3ccc(C#Cc4cc(-c5ccn[nH]5)ccn4)cc3)ncc2-c2ccccn2)CC1 [UNC4360A] | – | – | – | – | – | – | IC50 (Tyro3; Table 4, read-out: Tryo3 IC50): 100 to 1000 nM; IC50 (Mer; Table 4): 100 to 1000 nM; IC50 (Axl; Table 4): 1000 to 30000 nM |
| CN1CCN(Cc2ccc(-c3cnc(Nc4ccc(C#Cc5cc(NC(=O)C6CCCC6)ccn5)cc4)nc3N[C@H]3CC[C@H](O)CC3)cc2)CC1 [UNC3872A] | – | – | – | < 10 nM | < 10 nM | < 10 nM | – |
| O[C@H]1CC[C@H](Nc2nc(Nc3ccc(C4=CCNCC4)cc3)ncc2-c2ccccn2)CC1 [UNC4402A] | 100 to 1000 nM | 100 to 1000 nM | 1000 to 30000 nM | – | – | – | – |
| CC(C)C(=O)Nc1ccnc(C#Cc2ccc(Nc3ncc(-c4ccc(CN5CCN(C)CC5)cc4)c(N[C@H]4CC[C@H](O)CC4)n3)cc2Cl)c1 [UNC4047A] | – | – | – | < 10 nM | < 10 nM | < 10 nM | – |
| CC[C@H](N)C(=O)N1CC=C(c2ccc(Nc3ncc(-c4ccccn4)c(N[C@H]4CC[C@H](O)CC4)n3)cc2)CC1 [UNC4403A] | 100 to 1000 nM | 100 to 1000 nM | 1000 to 30000 nM | – | – | – | – |
| O=S(=O)(c1ccc(-c2cnc(Nc3ccc(C#Cc4cc(C5OCCO5)ccn4)cc3)nc2N[C@H]2CC[C@H](O)CC2)nc1)N1CCOCC1 [UNC3619A] | – | – | – | < 10 nM | < 10 nM | 100 to 1000 nM | – |
| CN1CCC(N2CC=C(c3ccc(Nc4ncc(-c5ccccn5)c(N[C@H]5CC[C@H](O)CC5)n4)cc3)CC2)CC1 [UNC5052A] | 100 to 1000 nM | 10 to 100 nM | 100 to 1000 nM | – | – | – | – |
| CN1CC=C(c2ccc(Nc3ncc(-c4ccccn4)c(N[C@H]4CC[C@H](O)CC4)n3)cc2)CC1 [UNC4431A] | 100 to 1000 nM | 100 to 1000 nM | 1000 to 30000 nM | – | – | – | – |
| O[C@H]1CC[C@H](Nc2nc(Nc3ccccc3)ncc2-c2ccccn2)CC1 [UNC3029A] | – | – | – | – | – | – | IC50 (Tyro3; Table 1, read-out: Tyro3 IC50): < 10 nM; IC50 (Axl; Table 1): 100 to 1000 nM |
| CC(C)C(=O)Nc1ccnc(C#Cc2ccc(Nc3ncc(-c4ccc(CN5CCN(C)CC5)cc4)c(N[C@H]4CC[C@H](O)CC4)n3)c(F)c2)c1 [UNC4040A] | – | – | – | < 10 nM | < 10 nM | 100 to 1000 nM | – |
| CNc1nc(Nc2ccc(C3CCN(C)CC3)cc2)ncc1-c1ccccn1 [UNC5136A] | 1000 to 30000 nM | 1000 to 30000 nM | 1000 to 30000 nM | – | – | – | – |
| CN1CCN(Cc2ccc(-c3cnc(Nc4ccc(C#Cc5cc(C6OCCO6)ccn5)cc4)nc3N[C@H]3CC[C@H](O)CC3)cc2)CC1 [UNC3437A] | – | – | – | – | 10 to 100 nM | 100 to 1000 nM | – |

— US10526309B2, “Pan-TAM inhibitors and Mer/Axl dual inhibitors” (The University of North Carolina at Chapel Hill, priority 2015, dated 2020)
